In the NIST ThermoML archive (doi:10.1021/acs.jced.9b00354):
± gives the expanded uncertainty stated by the source.

Assay: mn = molality of the nth substance listed, in mol/kg
Conditions: 308.15 K, 100 kPa, Liquid, m1 = 0.0148

For O=S(=O)([O-])[O-].[Ca+2] [calcium sulfate] + O, which speed of sound (Single path-length method) is on record?
Its speed of sound is 1521.4 ± 0.7 m/s.

What about the mass density (Vibrating tube method) of the same compound?
The mass density was 995.9 ± 10 kg/m3.
